Read-outs that look alike come from different tables or passages of the source.

One experiment has as its system washed rabbit platelets. The arrangement: method as in earlier work; key to effect on platelet aggregation (class symbol): A: P latelet aggregation was promoted. Conditions: cited from earlier work; for % inhibition of platelet aggregation, inducer AA: AA 100 /c109/c77; for % inhibition of platelet aggregation, inducer PAF: PAF 2ng/mL; for % inhibition of platelet aggregation, inducer Col: collagen 10 /c109g/mL; for % inhibition of platelet aggregation, inducer Thr: thrombin 0.1 U/mL; for antiplatelet aggregation activity (in words): at 100 /c109g/mL.

Experiment [1] concerns Hela: Human cervix epithelioid carcinoma. The arrangement: method as in earlier work. Conditions: cited from earlier work.
Experiment [2] relates to DLD (DLD-1): Human colon adenocarcinoma. The arrangement: method as in earlier work. Conditions: cited from earlier work.
Another experiment has as its system Hepa: Human hepatoma. The arrangement: method as in earlier work. To be noted: cited from earlier work.
In the next experiment the test system is A549 cell line. Description: SRB in vitro cytotoxicity screening. The format is cell-based, human. To be noted: isolated compounds. The method, then:
(§1) The human cell lines A549 (lung cancer) and Ca Ski (cervical cancer) were cultured as monolayer in RPMI 1640 growth media whereas HCT-116 (colon cancer) and MRC5 (human normal lung fibroblasts) was cultured in McCoy’s 5A and EMEM medium, respectively. All cells were purchased from the […] (ATCC, USA). All the media were supplemented with 10 % v/v foetal bovine serum (FBS), 100 μg/mL penicillin/streptomycin, and 50 μg/mL amphotericin B. The cells were cultured in a 5 % CO2 incubator at 37 °C.
(§2) The monolayer cell culture was detached using accutase and the cell count was adjusted to 2.5 x10^5 -3.0 x10^5 cells/mL using medium containing feotal bovine serum. The cells were then plated into 96 wells with a cell density of 5000-7000 cells/well and then incubated for 24 h to allow adherence of cells to the base of well of the plates. The media was then removed and 200 μl of fresh media containing different concentration of various extracts or isolated compounds were added. Cisplatin was used as the positive control. The plates were incubated for 24, 48 and 72 h at 37 °C and 5 % CO2. The cytotoxicity of the extracts and isolated compounds were screened using the […] (SRB) assay. This assay was first described by Houghton in 2007 [8]. The incubation was halted by gentle addition of 50 μl ice cold 4 % trichloroacetic acid (TCA) to each well and the plates were incubated at 4 °C for 1 h. Then, the supernatant was discarded and the plates were washed with distilled water for 5 times and then air dried. SRB dye, 50 μl, (0.4 % w/v) was added into each well and the treated cells and control were incubated at room temperature for 30 min. The unbound dye was removed by rapid washing four times with 1 % acetic acid. The plates were then air dried and 100 μl of tris base (10 mM unbuffered, pH 10.5) was added and the plates were shaken at 500 rpm for 5 min to solublize the bound SRB stain. The plates were then read with an ELISA reader (Synergy H1 Hybrid) at an absorbance of 492 nm.

For experiment [3], the system named is MRC5 (human normal lung fibroblasts). Description: SRB in vitro cytotoxicity screening (toxicity to normal cells). The format is cell-based. Conditions: isolated compounds; for IC50: 72 h, read-out: IC50 in μg/ml (μM) (MRC5) 72 h (converted). The method, then: as §1, §2
Where [4] appears, read: Homo sapiens, A549, 48 h, value in brackets, read-out: IC50 in μg/ml (μM) (A549) 48 h (converted).
[5] abbreviates: Homo sapiens, A549, 48 h, read-out: IC50 in μg/ml (μM) (A549) 48 h (converted).
Setting [6] is: Homo sapiens, A549, 72 h, value in brackets, read-out: IC50 in μg/ml (μM) (A549) 72 h (converted).
The mark [7] stands for this setting: Homo sapiens, A549, 72 h, read-out: IC50 in μg/ml (μM) (A549) 72 h (converted).
Setting [8] is: Homo sapiens, MRC5, value in brackets.

With `COc1cc2ccc(=O)oc2cc1O` [Compound 15, scopoletin], in the experiment with washed rabbit platelets (Conc. 100 /c109g/mL), the “% inhibition of platelet aggregation, inducer AA” value (“% inhibition … inducer AA” below) is recorded as 14.7%; the “% inhibition of platelet aggregation, inducer PAF” value (shortened to “% inhibition … inducer PAF”) is reported as 1.6%; the “% inhibition of platelet aggregation, inducer Col” value (from here on “% inhibition … inducer Col”) is on record as 3.4%; the “% inhibition of platelet aggregation, inducer Thr” value (“% inhibition … inducer Thr” for short) is given as 1.5%. For the same molecule, in the experiment on washed rabbit platelets, the “antiplatelet aggregation activity (in words)” value is “no obvious activity”. Besides, in experiment [1], the “ED50 Hela” value was “- (“-“: ED50 /c6220 /c109g/mL)”. Further, the “ED50 DLD” value in experiment [2] is given as “- (“-“: ED50 /c6220 /c109g/mL)”. In addition, in the experiment with Hepa: Human hepatoma, the “ED50 Hepa” value is given as “- (“-“: ED50 /c6220 /c109g/mL)”.
Take `CC(=O)CCCCCCc1ccc2c(c1)OCO2` [Moskachan D, moskachan D]: the IC50 in the experiment on A549 cell line (setting [4]) is 312 µM; in the experiment with A549 cell line (setting [5]), 77.5 ± 3 µg/mL; in the experiment on A549 cell line (setting [6]), 74.6 µM; with A549 cell line (setting [7]) it was 18.5 ± 0.65 µg/mL; in experiment [3] (setting [8]) it was 366 µM; in experiment [3] (Homo sapiens, MRC5) it was 90.8 ± 0.8 µg/mL.
On to `COc1cc2c(c(O)c1OC)c(=O)c1ccccc1n2C` [Compound 2, arborinine], for which, in the experiment with washed rabbit platelets (Conc. 50 /c109g/mL), the “% inhibition … inducer AA” value is recorded as 51.6%; the “% inhibition … inducer PAF” value is listed as 4.8%; the “% inhibition … inducer Col” value is 39.1%; the “% inhibition … inducer Thr” value was 1.1%. Further, the “antiplatelet aggregation activity (in words)” value in the experiment on washed rabbit platelets was “no obvious activity”. For the same molecule, the “ED50 DLD” value in experiment [2] was “- (“-“: ED50 /c6220 /c109g/mL)”. Moreover, the “ED50 Hepa” value in the experiment with Hepa: Human hepatoma is “- (“-“: ED50 /c6220 /c109g/mL)”.
Regarding `CC(=O)CCCCc1ccc2c(c1)OCO2` [Moskachan B, moskachan B], the IC50 in the experiment on A549 cell line (setting [4]) was more than 454 µM; in the experiment on A549 cell line (setting [5]) it was more than 100 µg/mL; in the experiment with A549 cell line (setting [6]), more than 454 µM; with A549 cell line (setting [7]), more than 100 µg/mL; in experiment [3] (setting [8]), more than 454 µM; in experiment [3] (Homo sapiens, MRC5), more than 100 µg/mL.
Take `Cn1c(-c2ccc3c(c2)OCO3)cc(=O)c2ccccc21` [Compound 17, graveoline]: in the experiment on washed rabbit platelets (Conc. 50 /c109g/mL), the “% inhibition … inducer AA” value is 9.5%; the “% inhibition … inducer PAF” value was 6.2%; the “% inhibition … inducer Col” value is reported as 5.2%; the “% inhibition … inducer Thr” value was 1.1%. For the same molecule, in the experiment on washed rabbit platelets, the “antiplatelet aggregation activity (in words)” value was “no obvious activity”. Moreover, in experiment [2], the “ED50 DLD” value was “- (“-“: ED50 /c6220 /c109g/mL)”. Further, the “ED50 Hepa” value in the experiment with Hepa: Human hepatoma was “- (“-“: ED50 /c6220 /c109g/mL)”.
Turning to `C=CC(C)(C)c1cc2cc3c(cc2oc1=O)OC(C(C)(C)OC(C)=O)C3` (stereo not drawn) [Compound 14, rutamarin], in the experiment with washed rabbit platelets (Conc. 50 /c109g/mL), the “% inhibition … inducer AA” value is recorded as 7.6%; the “% inhibition … inducer PAF” value is reported as 4.5%; the “% inhibition … inducer Col” value was 10.5%; the “% inhibition … inducer Thr” value is 3.0%. Moreover, the “antiplatelet aggregation activity (in words)” value with washed rabbit platelets is on record as “no obvious activity”. Further, in the experiment on Hepa: Human hepatoma, the “ED50 Hepa” value is recorded as “- (“-“: ED50 /c6220 /c109g/mL)”.
Turning to `COc1cc2nc3occc3c(OC)c2cc1OC` [Compound 6, kokusaginine], in the experiment with washed rabbit platelets (Conc. 100 /c109g/mL), the “% inhibition … inducer AA” value is 42.2%; the “% inhibition … inducer PAF” value is given as 3.5%; the “% inhibition … inducer Col” value was 53.1%; the “% inhibition … inducer Thr” value is 0.9%. The “antiplatelet aggregation activity (in words)” value with washed rabbit platelets is listed as “no obvious activity”. In experiment [2], the “ED50 DLD” value was “- (“-“: ED50 /c6220 /c109g/mL)”. For the same molecule, in the experiment with Hepa: Human hepatoma, the “ED50 Hepa” value is on record as “- (“-“: ED50 /c6220 /c109g/mL)”.
In the case of `N.N.[Cl][Pt][Cl]` [Cisplatin, reference compound], in the experiment on A549 cell line (72 h), the “IC50 in μg/ml (μM) (A549) 72 h” value turned out to be 24.5 ± 1.8 µg/mL. Besides, the IC50 in the experiment on A549 cell line (72 h, value in brackets, read-out: IC50 in μg/ml (μM) (A549) 72 h (converted)) is 81.7 µM; in experiment [3] (value in brackets), more than 333 µM. In addition, the “IC50 in μg/ml (μM) (MRC5) 72 h” value in experiment [3] was more than 100 µg/mL.
On to `COc1c2ccoc2cc2oc(=O)ccc12` [Bergapten, bergapten], for which the IC50 with A549 cell line (setting [4]) was more than 463 µM; in the experiment on A549 cell line (setting [5]), more than 100 µg/mL; in the experiment on A549 cell line (setting [6]), 202 µM; in the experiment on A549 cell line (setting [7]), 43.5 ± 1.81 µg/mL; in experiment [3] (setting [8]), more than 463 µM; in experiment [3] (Homo sapiens, MRC5) it was more than 100 µg/mL.
Turning to `Cn1c(-c2ccc3c(c2)OCO3)cc(=O)c2ccccc21` [Graveoline, graveoline], the IC50 was 274 µM with A549 cell line (setting [4]); 76.3 ± 2.08 µg/mL in the experiment on A549 cell line (setting [5]); 160 µM with A549 cell line (setting [6]); 44.6 ± 0.47 µg/mL with A549 cell line (setting [7]); 250 µM in experiment [3] (setting [8]); 69.7 ± 2.5 µg/mL in experiment [3] (Homo sapiens, MRC5).
1-hydroxy-N-methylacridone [Compound 1]: in the experiment with washed rabbit platelets (Conc. 20 /c109g/mL), the “% inhibition … inducer AA” value is on record as 17.8%; the “% inhibition … inducer PAF” value was 3.4%; the “% inhibition … inducer Col” value is 3.7%; the “% inhibition … inducer Thr” value is recorded as 4.3%. The “effect on platelet aggregation (class symbol)” value in the experiment on washed rabbit platelets (Conc. 50 /c109g/mL, inducer column cannot be told) is on record as “A”. For the same molecule, the “antiplatelet aggregation activity (in words)” value with washed rabbit platelets is given as “no obvious activity”. Further, in the experiment on Hepa: Human hepatoma, the “ED50 Hepa” value is given as “- (“-“: ED50 /c6220 /c109g/mL)”.
As for skimmianine [Compound 7], the “% inhibition … inducer AA” value in the experiment on washed rabbit platelets (Conc. 20 /c109g/mL) is on record as 5.4%; with washed rabbit platelets (Conc. 50 /c109g/mL) it was 13.1%; in the experiment on washed rabbit platelets (Conc. 100 /c109g/mL), 81.5%. In addition, the “% inhibition … inducer Col” value in the experiment on washed rabbit platelets (Conc. 20 /c109g/mL) was 2.5%; in the experiment on washed rabbit platelets (Conc. 50 /c109g/mL), 7.8%; in the experiment on washed rabbit platelets (Conc. 100 /c109g/mL), 45.9%. Further, in experiment [1], the “ED50 Hela” value is “- (“-“: ED50 /c6220 /c109g/mL)”. The “ED50 DLD” value in experiment [2] is given as “- (“-“: ED50 /c6220 /c109g/mL)”. Also, the “ED50 Hepa” value in the experiment on Hepa: Human hepatoma is given as “- (“-“: ED50 /c6220 /c109g/mL)”.
For the molecule `C=CC(=C)CCCC(C)CCCC(C)CCCC(C)C` (stereo not drawn) [Neophytadiene, neophytadiene], the IC50 with A549 cell line (setting [4]) is 249 µM; with A549 cell line (setting [5]) it was 69.2 ± 1.06 µg/mL; in the experiment with A549 cell line (setting [6]), 245 µM; in the experiment on A549 cell line (setting [7]), 68 ± 2.43 µg/mL; in experiment [3] (setting [8]) it was 278 µM; in experiment [3] (Homo sapiens, MRC5), 77.4 ± 0.98 µg/mL.
For `COc1c2ccoc2c(OC)c2oc(=O)ccc12` [Compound 11, isopimpinellin], in the experiment on washed rabbit platelets (Conc. 100 /c109g/mL), the “% inhibition … inducer AA” value is listed as 30.4%; the “% inhibition … inducer PAF” value was 4.5%; the “% inhibition … inducer Col” value is on record as 8.0%; the “% inhibition … inducer Thr” value is reported as 3.9%. The “antiplatelet aggregation activity (in words)” value in the experiment with washed rabbit platelets is reported as “no obvious activity”.
For the molecule `COc1cc2nc3occc3c(OC)c2cc1OC` [Kokusaginine, kokusaginine], the IC50 in the experiment on A549 cell line (Homo sapiens, A549, 48 h, 48 h, value in brackets, read-out: IC50 in μg/ml (μM) (A549) 48 h (converted)) is 338 µM; with A549 cell line (Homo sapiens, A549, 48 h, 48 h, read-out: IC50 in μg/ml (μM) (A549) 48 h (converted)) it was 87.4 ± 7.08 µg/mL; in the experiment on A549 cell line (Homo sapiens, A549, 72 h, 72 h, value in brackets, read-out: IC50 in μg/ml (μM) (A549) 72 h (converted)), more than 386 µM; with A549 cell line (Homo sapiens, A549, 72 h, 72 h, read-out: IC50 in μg/ml (μM) (A549) 72 h (converted)), more than 100 µg/mL; in experiment [3] (setting [8]), 289 µM; in experiment [3] (Homo sapiens, MRC5), 74.8 ± 0.82 µg/mL.

The values are drawn from paper PMC5059921, “Chalepin: isolated from Ruta angustifolia L. Pers induces mitochondrial mediated apoptosis in lung carcinoma cells” (BMC Complementary and Alternative Medicine, 2016).
